Target: T1, Dopamine beta hydroxylase (Homo sapiens, UniProt P09172)
T1 construct: 125 μl of plasma; tissue Instituto Português do Sangue Transplantação; host or cells: human plasma from healthy donors
T1 sequence (P09172 40-617 limits assumed): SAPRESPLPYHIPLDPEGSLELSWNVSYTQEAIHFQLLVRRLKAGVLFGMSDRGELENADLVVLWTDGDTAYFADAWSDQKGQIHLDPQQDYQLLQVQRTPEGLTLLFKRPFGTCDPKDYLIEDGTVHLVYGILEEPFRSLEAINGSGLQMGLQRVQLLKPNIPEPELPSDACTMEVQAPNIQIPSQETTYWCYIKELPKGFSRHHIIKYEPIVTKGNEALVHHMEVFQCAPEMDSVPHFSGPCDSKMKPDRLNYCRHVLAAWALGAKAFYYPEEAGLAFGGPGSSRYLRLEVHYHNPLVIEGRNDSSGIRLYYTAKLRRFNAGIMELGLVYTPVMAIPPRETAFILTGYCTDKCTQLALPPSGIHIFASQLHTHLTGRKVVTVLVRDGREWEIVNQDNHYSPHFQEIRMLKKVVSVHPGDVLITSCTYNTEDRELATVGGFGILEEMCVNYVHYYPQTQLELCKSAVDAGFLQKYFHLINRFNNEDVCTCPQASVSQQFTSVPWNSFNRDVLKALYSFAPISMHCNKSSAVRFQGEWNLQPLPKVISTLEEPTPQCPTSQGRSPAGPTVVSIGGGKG
Assay: Dopamine beta hydroxylase activity in human plasma
Type: biochemical
Conditions: for Plasma (0.1 μM), activity in % of control: inhibitor 0.1 μM; for Plasma (1 μM), activity in % of control: inhibitor 1 μM
How it was run: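 Healthy-donor human plasma pre-incubated 10 min at 37° C with compound at final 10, 100 or 1000 nM in pH 5.0 acetate buffer with ascorbate, fumarate, pargyline, N-ethylmaleimide, catalase and copper sulfate. Tyramine substrate then added for 45 min; octopamine formed was isolated by SCX cartridge, periodate-converted and read at 330 nm; activity given as % control.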

Row | Structure (SMILES) | Plasma (0.1 μM), activity in % of control | Plasma (1 μM), activity in % of control
1 | CN1CCN(C(=O)Cc2[nH]c(=S)n3c2C[C@H](c2c(F)c(F)cc(F)c2F)C3)CC1 [Example 81, (R)-1-(4-methylpiperazin-1-yl)-2-(6-(2,3,5,6-tetrafluorophenyl)-3-thioxo-2,5,6,7-tetrahydro-3H-pyrrolo[1,2-c]imidazol-1-yl)ethan-1-one] | 63.1 % of control | 15.9 % of control
2 | O=C(Cc1[nH]c(=S)n2c1C[C@H](c1c(F)c(F)cc(F)c1F)C2)N1CCC(O)CC1 [Example 82, (R)-1-(4-hydroxypiperidin-1-yl)-2-(6-(2,3,5,6-tetrafluorophenyl)-3-thioxo-2,5,6,7-tetrahydro-3H-pyrrolo[1,2-c]imidazol-1-yl)ethan-1-one] | 69.2 % of control | 16.6 % of control
3 | O=C(Cc1[nH]c(=S)n2c1C[C@H](c1c(F)c(F)cc(F)c1F)C2)N1CCC(CO)CC1 [Example 83, (R)-1-(4-(hydroxymethyl)piperidin-1-yl)-2-(6-(2,3,5,6-tetrafluorophenyl)-3-thioxo-2,5,6,7-tetrahydro-3H-pyrrolo[1,2-c]imidazol-1-yl)ethan-1-one] | 78.8 % of control | 15.9 % of control
4 | O=C(Cc1[nH]c(=S)n2c1C[C@@H](c1c(F)ccc(Cl)c1F)C2)NC1CCCC1 [Example 84, (S)-2-(6-(3-chloro-2,6-difluorophenyl)-3-thioxo-2,5,6,7-tetrahydro-3H-pyrrolo[1,2-c]imidazol-1-yl)-N-cyclopentylacetamide] | 24.5 % of control | 1.0 % of control
5 | CN(C)C(=O)CN1CCN(C(=O)Cc2[nH]c(=S)n3c2C[C@H](c2c(F)c(F)cc(F)c2F)C3)CC1 [Example 85, (R)—N,N-dimethyl-2-(4-(2-(6-(2,3,5,6-tetrafluorophenyl)-3-thioxo-2,5,6,7-tetrahydro-3H-pyrrolo[1,2-c]imidazol-1-yl)acetyl)piperazin-1-yl)acetamide] | 59.1 % of control | 12.2 % of control
6 | NC(=O)C1CCN(C(=O)Cc2[nH]c(=S)n3c2C[C@H](c2c(F)c(F)cc(F)c2F)C3)CC1 [Example 86, (R)-1-(2-(6-(2,3,5,6-tetrafluorophenyl)-3-thioxo-2,5,6,7-tetrahydro-3H-pyrrolo[1,2-c]imidazol-1-yl)acetyl)piperidine-4-carboxamide] | 70.9 % of control | 14.7 % of control
7 | O=C(Cc1[nH]c(=S)n2c1C[C@H](c1c(F)c(F)cc(F)c1F)C2)N1CCC2(CC1)OCCO2 [Example 87, (R)-1-(1,4-dioxa-8-azaspiro[4.5]decan-8-yl)-2-(6-(2,3,5,6-tetrafluorophenyl)-3-thioxo-2,5,6,7-tetrahydro-3H-pyrrolo[1,2-c]imidazol-1-yl)ethan-1-one] | 62.8 % of control | 13.8 % of control
8 | CC(C)NC(=O)Cc1[nH]c(=S)n2c1C[C@@H](c1c(F)ccc(Cl)c1F)C2 [Example 88, (S)-2-(6-(3-chloro-2,6-difluorophenyl)-3-thioxo-2,5,6,7-tetrahydro-3H-pyrrolo[1,2-c]imidazol-1-yl)-N-isopropylacetamide] | 44.1 % of control | 6.1 % of control
9 | O=C(Cc1[nH]c(=S)n2c1C[C@@H](c1c(F)ccc(Cl)c1F)C2)NCCCN1CCOCC1 [Example 89, (S)-2-(6-(3-chloro-2,6-difluorophenyl)-3-thioxo-2,5,6,7-tetrahydro-3H-pyrrolo[1,2-c]imidazol-1-yl)-N-(3-morpholinopropyl)acetamide] | 4.3 % of control | 0 % of control
10 | O=C(Cc1[nH]c(=S)n2c1C[C@@H](c1c(F)ccc(Br)c1F)C2)N[C@@H]1CCOC1 [Example 90, 2-((S)-6-(3-bromo-2,6-difluorophenyl)-3-thioxo-2,5,6,7-tetrahydro-3H-pyrrolo[1,2-c]imidazol-1-yl)-N—((R)-tetrahydrofuran-3-yl)acetamide] | 9.9 % of control | 0.4 % of control
11 | CN1CCN(C(=O)Cc2[nH]c(=S)n3c2C[C@@H](c2c(F)ccc(Br)c2F)C3)CC1 [Example 91, (S)-2-(6-(3-bromo-2,6-difluorophenyl)-3-thioxo-2,5,6,7-tetrahydro-3H-pyrrolo[1,2-c]imidazol-1-yl)-1-(4-methylpiperazin-1-yl)ethan-1-one] | 19.0 % of control | 0 % of control
12 | CCCCN(C)C(=O)Cc1[nH]c(=S)n2c1C[C@@H](c1c(F)ccc(Br)c1F)C2 [Example 92, (S)-2-(6-(3-bromo-2,6-difluorophenyl)-3-thioxo-2,5,6,7-tetrahydro-3H-pyrrolo[1,2-c]imidazol-1-yl)-N-butyl-N-methylacetamide] | 37.5 % of control | 0.1 % of control
13 | O=C(Cc1[nH]c(=S)n2c1C[C@@H](c1c(F)ccc(Br)c1F)C2)NCCO [Example 93, (S)-2-(6-(3-bromo-2,6-difluorophenyl)-3-thioxo-2,5,6,7-tetrahydro-3H-pyrrolo[1,2-c]imidazol-1-yl)-N-(2-hydroxyethyl)acetamide] | 32.1 % of control | 1.0 % of control
14 | O=C(Cc1[nH]c(=S)n2c1C[C@@H](c1c(F)ccc(Br)c1F)C2)NC1CC1 [Example 94, (S)-2-(6-(3-bromo-2,6-difluorophenyl)-3-thioxo-2,5,6,7-tetrahydro-3H-pyrrolo[1,2-c]imidazol-1-yl)-N-cyclopropylacetamide] | 47.5 % of control | 0.8 % of control
15 | O=C(Cc1[nH]c(=S)n2c1C[C@@H](c1c(F)ccc(Br)c1F)C2)NCC1CC1 [Example 95, (S)-2-(6-(3-bromo-2,6-difluorophenyl)-3-thioxo-2,5,6,7-tetrahydro-3H-pyrrolo[1,2-c]imidazol-1-yl)-N-(cyclopropylmethyl)acetamide] | 24.0 % of control | 0 % of control
16 | NC(=O)Cc1[nH]c(=S)n2c1C[C@@H](c1c(F)ccc(Br)c1F)C2 [Example 96, (S)-2-(6-(3-bromo-2,6-difluorophenyl)-3-thioxo-2,5,6,7-tetrahydro-3H-pyrrolo[1,2-c]imidazol-1-yl)acetamide] | 22.4 % of control | 0.8 % of control
17 | CCCNC(=O)Cc1[nH]c(=S)n2c1C[C@@H](c1c(F)ccc(Br)c1F)C2 [Example 97, (S)-2-(6-(3-bromo-2,6-difluorophenyl)-3-thioxo-2,5,6,7-tetrahydro-3H-pyrrolo[1,2-c]imidazol-1-yl)-N-propylacetamide] | 22.7 % of control | 0.5 % of control
18 | O=C(Cc1[nH]c(=S)n2c1C[C@H](c1c(F)c(F)cc(F)c1F)C2)N1CCC[C@H]1CO [Example 98, 1-((S)-2-(hydroxymethyl)pyrrolidin-1-yl)-2-((R)-6-(2,3,5,6-tetrafluorophenyl)-3-thioxo-2,5,6,7-tetrahydro-3H-pyrrolo[1,2-c]imidazol-1-yl)ethan-1-one] | 53.1 % of control | 11.7 % of control
19 | O=C(Cc1[nH]c(=S)n2c1C[C@@H](c1c(F)c(F)cc(F)c1F)C2)NC1CCC1 [Example 99, (S)—N-cyclobutyl-2-(6-(2,3,5,6-tetrafluorophenyl)-3-thioxo-2,5,6,7-tetrahydro-3H-pyrrolo[1,2-c]imidazol-1-yl)acetamide] | 55.7 % of control | 10.3 % of control
20 | O=C(Cc1[nH]c(=S)n2c1C[C@@H](c1c(F)ccc(Br)c1F)C2)N1CCC[C@H]1CO [Example 100, 2-((S)-6-(3-bromo-2,6-difluorophenyl)-3-thioxo-2,5,6,7-tetrahydro-3H-pyrrolo[1,2-c]imidazol-1-yl)-1-((S)-2-(hydroxymethyl)pyrrolidin-1-yl)ethan-1-one] | 26.2 % of control | 2.1 % of control
21 | O=C(Cc1[nH]c(=S)n2c1C[C@@H](c1c(F)ccc(Br)c1F)C2)N1CCCC1 [Example 101, (S)-2-(6-(3-bromo-2,6-difluorophenyl)-3-thioxo-2,5,6,7-tetrahydro-3H-pyrrolo[1,2-c]imidazol-1-yl)-1-(pyrrolidin-1-yl)ethan-1-one] | 37.2 % of control | 3.3 % of control
22 | O=C(Cc1[nH]c(=S)n2c1C[C@@H](c1c(F)ccc(Br)c1F)C2)NC1CCC1 [Example 102, (S)-2-(6-(3-bromo-2,6-difluorophenyl)-3-thioxo-2,5,6,7-tetrahydro-3H-pyrrolo[1,2-c]imidazol-1-yl)-N-cyclobutylacetamide] | 20.3 % of control | 1.7 % of control
